From paper PMC12023740, “Semi-synthesis and biological activities of heterocyclic compounds containing camphor” (RSC Advances, 2025)

How the values were obtained:
[1] = tested on: MCF-7 breast carcinoma cells; test: MTT cytotoxicity assay, MCF-7; assay type: cell-based, human; details: mean ± SD of three experiments
Experimental: (§1) MCF-7 Adenocarcinoma of the breast in humans and A549 […] lines of cells (purchased from Labco's Sigma-Aldrich) were employed to evaluate the newly synthesized compounds' anti-cancer potential. […] The American type culture collection provided the cell lines and were cultured in 10% FBS added to DMEM (Invitrogen/Life Technologies) (Hyclone), a 10 μg ml^−1 of insulin (Sigma), and a 1% penicillin-streptomycin. The suppliers of all other chemicals and reagents were either Invitrogen or Sigma.
(§2) For the MTT assay, cells were plated at a density of 1.2 to 1.8 × 10 000 cells per well in a total volume of 200 μl, comprising 100 μl of a full growing medium and 100 μl of the substance that was evaluated in each well. The cells were then incubated for 24 hours.
(§3) Aspirate the cells gently using a pipette after adding 6.0 to 8.0 ml of full growth media. […] Transfer the proper aliquots to new culture vessels, discard the supernatant, and resuspend the cell pellet in fresh growth media. For a full day, incubate the cultures at 37 °C. […] To perform the MTT assay, examine the plates using an inverted microscope.
(§4) Additionally, incorporate a blank control containing complete medium without any cells. Remove the cultures from the incubator and transfer them to a laminar flow hood or sterile workspace. […] Add the reconstituted MTT in an amount equal to 10% of the total volume of the culture medium. Return the cultures to the incubator for 2 to 4 hours, depending on the cell type and maximum cell density; typically, 2 hours is adequate, though longer incubation may be required for low-density or less metabolically active cells. It is important to maintain consistent incubation times for accurate comparisons.
(§5) Gentle mixing with a gyratory shaker will facilitate the dissolution of the crystals. In denser cultures, pipetting up and down may be necessary to ensure complete dissolution of the MTT formazan crystals. Measure the absorbance spectrophotometrically at 570 nm and assess the background absorbance of the multi-well plates at 690 nm, which should be subtracted from the 570 nm measurement. The tests in multi-well plates can be read using an appropriate plate reader, or the contents can be transferred to cuvettes for measurement.

[2] = tested on: A549 lung cancer cells; test: MTT cytotoxicity assay, A549; assay type: cell-based, human; details: mean ± SD of three experiments
Experimental: as §1, §2, §3, §4, §5

[3] = target: T1, EGFR^WT (Homo sapiens, UniProt P00533); test: EGFR Kinase Assay Kit (Catalog # 40321), Kinase-Glo Max luminescence; assay type: biochemical; details: five concentrations, read-out: EGFR kinase inhibitory activity IC50
T1 construct: purchased 40321
T1 sequence (P00533 668-1210 limits assumed): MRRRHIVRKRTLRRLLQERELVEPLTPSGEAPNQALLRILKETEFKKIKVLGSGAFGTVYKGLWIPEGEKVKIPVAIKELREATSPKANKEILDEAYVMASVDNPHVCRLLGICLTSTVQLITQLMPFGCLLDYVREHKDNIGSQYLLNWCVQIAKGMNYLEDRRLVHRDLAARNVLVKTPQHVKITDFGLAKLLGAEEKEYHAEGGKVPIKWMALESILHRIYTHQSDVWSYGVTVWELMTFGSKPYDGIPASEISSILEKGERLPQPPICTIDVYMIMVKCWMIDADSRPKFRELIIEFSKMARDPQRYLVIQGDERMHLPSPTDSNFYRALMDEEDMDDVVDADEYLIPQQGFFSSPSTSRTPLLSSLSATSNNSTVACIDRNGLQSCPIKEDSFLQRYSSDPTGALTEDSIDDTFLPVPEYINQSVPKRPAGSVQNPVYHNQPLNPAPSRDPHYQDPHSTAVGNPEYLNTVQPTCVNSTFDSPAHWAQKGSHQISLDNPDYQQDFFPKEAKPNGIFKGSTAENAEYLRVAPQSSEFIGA

Row | Compound | IC50 ([1]; Homo sapiens, MCF7, MTT test) [µM] | IC50 ([2]; Homo sapiens, A549, MTT test) [µM] | IC50 [3] [µM] | IC50 ([2]; MTT test) [µM] | IC50 ([1]; MTT test) [µM]
1 | CC12CCC(C3(C1)NC(=S)NC(=N)C3C#N)C2(C)C (stereo not shown) [Compound 6, 6′-Imino-4,7,7-trimethyl-2′-thioxotetrahydro-1′H-spiro[bicyclo[2.2.1]heptane-2,4′-pyrimidine]-5′-carbonitrile] | 19.9 ± 0.73 | 28.5 ± 0.99 |  |  | 
2 | CC12CCC(C3(C1)NC(=S)NC(=O)C3C#N)C2(C)C (stereo not shown) [Compound 7, 4,7,7-Trimethyl-6′-oxo-2′-thioxotetrahydro-1′H-spiro[bicyclo[2.2.1]heptane-2,4′-pyrimidine]-5′-carbonitrile] | 10.1 ± 0.39 | 22.2 ± 0.77 |  |  | 
3 | CC(=O)C1C(=O)NC(=S)NC12CC1(C)CCC2C1(C)C (stereo not shown) [Compound 8, 5′-Acetyl-4,7,7-trimethyl-2′-thioxodihydro-1′H-spiro[bicyclo[2.2.1]heptane-2,4′-pyrimidin]-6′(5′H)-one] | 6.15 ± 0.23 | 3.34 ± 0.12 |  |  | 
4 | CC12CCC(C3(C1)NC(=O)NC(=N)C3C#N)C2(C)C (stereo not shown) [Compound 10, 6′-Imino-4,7-trimethyl-2′-oxotetrahydro-1′H-spiro[bicyclo[2.2.1]heptane-2,4′-pyrimidine]-5′-carbonitrile] | 12.7 ± 0.47 | 23.3 ± 0.81 |  |  | 
5 | CC12CCC(C3(C1)NC(=O)NC(=O)C3C#N)C2(C)C (stereo not shown) [Compound 11, 4,7,7-Trimethyl-2′,6′-dioxotetrahydro-1′H-spiro[bicyclo[2.2.1]heptane-2,4′-pyrimidine]-5′-carbonitrile] | 35 ± 1.32 | 56.6 ± 2.01 |  |  | 
6 | CC(=O)C1C(=O)NC(=O)NC12CC1(C)CCC2C1(C)C (stereo not shown) [Compound 12, 5′-Acetyl-4,7,7-trimethyl-1′H-spiro[bicyclo[2.2.1]heptane-2,4′-pyrimidine]-2′,6′(3′H,5′H)-dione] | 3.2 ± 0.12 | 14.4 ± 0.5 |  |  | 
7 | Cc1ccc(-c2cs/c(=N/N=C3/CC4CCC3(C)C4(C)C)[nH]2)cc1 (stereo not shown) [Compound 16a] | 2.16 ± 0.08 | 4.13 ± 0.14 |  |  | 
8 | CC12CCC(C/C1=N/N=c1\[nH]c(-c3ccc(Cl)cc3)cs1)C2(C)C (stereo not shown) [Compound 16b] | 8.29 ± 0.3 | 15.2 ± 0.53 |  |  | 
9 | CC12CCC(C/C1=N/N=c1\[nH]c(-c3ccc(Br)cc3)cs1)C2(C)C (stereo not shown) [Compound 16c] | 2.84 ± 0.1 | 1.29 ± 0.04 |  |  | 
10 | CC12CCC(C/C1=N/N=C/c1cn(-c3ccc(S(N)(=O)=O)cc3)nc1-c1ccc(Br)cc1)C2(C)C (stereo not shown) [Compound 20] | 0.78 ± 0.03 | 1.69 ± 0.06 | 0.198 |  | 
11 | Cc1nc(Nc2ncc(C(=O)Nc3c(C)cccc3Cl)s2)cc(N2CCN(CCO)CC2)n1 [Dasatinib, reference compound] | 7.99 ± 0.29 | 11.8 |  | 11.8 ± 0.41 | 
12 | COc1cccc2c1C(=O)c1c(O)c3c(c(O)c1C2=O)C[C@@](O)(C(=O)CO)C[C@@H]3O[C@H]1C[C@H](N)[C@H](O)[C@H](C)O1 [Doxorubicin, reference compound] | 3.1 | 2.43 ± 0.08 |  |  | 3.12 ± 0.11
13 | C#Cc1cccc(Nc2ncnc3cc(OCCOC)c(OCCOC)cc23)c1 [Erlotinib, reference compound] | 13.9 ± 1.3 |  |  |  | 
